{"source": "patent US20210386736A1", "about": "“COMBINATION THERAPY FOR TREATING CANCER” (AstraZeneca AB, priority 2018, published 2021)", "key": {"KG1a AML cells": {"tested_on": "KG1a AML cells", "experiment": "KG1a subcutaneous AML xenograft, tumor volume over time", "type": "in vivo, SCID mice", "conditions": "FIG. 1; AZD2811 nanoparticles 100 mg/kg iv once weekly, venetoclax 100 mg/kg orally daily, 3 weekly cycles", "protocol": "(§1) KGa1: 2×10^7 KG1a AML cells in 50% matrigel were implanted subcutaneously on the left flank of adult female SCID mice. Mice were randomised by tumor volume at D7 into groups of 8, with an average tumor volume of 0.2 cm^3 and all dosing was started. AZD2811 nanoparticles were dosed at once weekly with a 20-30 s intravenous infusion at either 100 mg/kg (100 mg/kg was the maximum tolerated dose in combination with venetoclax (ABT-199) 100 mg/kg; venetoclax was administered orally daily at 100 mg/kg). All drugs were given for 3 weekly cycles.\nas §1, with “HL-60: 1×10^7 HL-60 AML” for “KGa1: 2×10^7 KG1a AML”, “either 50 mg/kg, 25 mg/kg, 12.5 mg/kg and 6.25” for “either 100”, “cycles. For both models, tumors were measured twice weekly by single operators, and all dosing was performed by randomised cage to minimise systematic bias. […] All drugs were given for 2 weekly cycles, the study endpoint was determined by a welfare scoring table.” for “cycles.”"}, "HL-60 AML cells": {"tested_on": "HL-60 AML cells", "experiment": "HL-60 subcutaneous AML xenograft, tumor volume over time", "type": "in vivo, SCID mice", "conditions": "FIG. 2; AZD2811 nanoparticles 50, 25, 12.5 or 6.25 mg/kg iv once weekly, venetoclax 100 mg/kg orally daily, 3 weekly cycles; combination benefit notably at the lowest doses of AZD2811", "protocol": "HL-60: 1×10^7 HL-60 AML cells in 50% matrigel were implanted subcutaneously on the left flank of adult female SCID mice. Mice were randomised by tumor volume at D7 into groups of 8, with an average tumor volume of 0.2 cm^3 and all dosing was started. AZD2811 nanoparticles were dosed at once weekly with a 20-30 s intravenous infusion at either 50 mg/kg, 25 mg/kg, 12.5 mg/kg and 6.25 mg/kg (100 mg/kg was the maximum tolerated dose in combination with venetoclax (ABT-199) 100 mg/kg; venetoclax was administered orally daily at 100 mg/kg). All drugs were given for 3 weekly cycles. For both models, tumors were measured twice weekly by single operators, and all dosing was performed by randomised cage to minimise systematic bias. For the MOLM-13 orthotopic model, 1×10^6 MOLM-13 cells were injected into the tail vien of adult female NOG mice. After 3 days, mice were randomised by body-weight into groups of 8 and treatment was commenced the following day. AZD2811 nanoparticles were dosed at once weekly with a 20-30 s intravenous infusion at 25 mg/kg (25 mg/kg was the maximum tolerated dose in combination with venetoclax (ABT-199) 100 mg/kg; venetoclax was administered orally daily at 100 mg/kg). […] All drugs were given for 2 weekly cycles, the study endpoint was determined by a welfare scoring table."}}, "data": [{"smiles": "CC1(C)CCC(CN2CCN(c3ccc(C(=O)NS(=O)(=O)c4ccc(NCC5CCOCC5)c([N+](=O)[O-])c4)c(Oc4cnc5[nH]ccc5c4)c3)CC2)=C(c2ccc(Cl)cc2)C1", "note": "[venetoclax, Venetoclax]", "values": [{"measurement": "efficacy (KG1a tumor volume over time)", "setting": "KG1a AML cells", "value": "modestly efficacious"}, {"measurement": "efficacy (HL-60 tumor volume over time)", "setting": "HL-60 AML cells", "value": "active"}]}]}
